Consider 1 compound from patent US10301299B2, “Glycosidase inhibitors” (Merck Patent GmbH, priority 2013, dated 2019).

Test [1] concerns Tg(tauP301L)4510 mice. The test is described as follows: Immunohistochemistry (AT8) and Bielschowsky stain of hippocampus in Tg4510 mice. The conditions noted are these: chronic 4 months. Format: in vivo, mouse. The procedure:
(§1) Animals: Tg(tauP301L)4510 mice were generated as previously described (Santacruz et al., 2005, Science 309: 476-481). Animals were bred and housed at the McLaughlin Research Institute (Great Falls, Mont.). All experiments were approved by the MRI Institutional Animal Care and Use Committee (IACUC).
Immunohistochemistry: To examine changes in tangle pathology, a hemibrain was dissected and immersion fixed in 10% neutral buffered formalin for 24-48 h and subsequently embedded in paraffin blocks. 10 micron serial coronal sections were mounted onto Superfrost Plus slides, and stained using Bond Intense R kit. To detect dystrophic AT8 neurons, mounted slides were pretreated with antigen retrieval solutions for 10 min followed by washes with BOND wash buffer. Sections were subsequently quenched with hydrogen peroxide in Bond Intense R kit, blocked with M.O.M. blocking buffer (M.O.M Immunodetection Kits, Vector Laboratories), and then incubated with pS202/205 primary antibody (1:500; ThermoScientific). Sections were then incubated sequentially with biotinylated donkey anti-mouse secondary antibody (1:200; Jackson Immunoresearch), Streptavidin-HRP, and 3,3′-diaminobenzidine (both BOND Intense R kit). To detect agyrophilic tangles, sections were deparafinized, rehydrated in distilled water and treated with formaldehyde (4%) overnight at 37° C. Sections were washed in tap water, incubated in a 20% silver nitrate solution for 15 min in the dark, washed, incubated with ammoniated silver solution for 10 min in the dark, washed in ammonia water, and treated with developer. Sections were subsequently washed in ammonia water, distilled water, thiosulfate sodium, dehydrated and mounted.

Test [2] relates to Tg(tauP301L)4510 mice. Briefly: Western blot of O-GlcNAcylation and tau phosphorylation in brain of Tg4510 mice. In kind it is in vivo, mouse. The procedure: as §1
Tau immunoprecipitation: To immunoprecipitate tau protein from brain lysates a Crosslink Immunoprecipitation kit (Pierce 26147) was used. The A/G resin was crosslinked to 10 μg of the HT7 tau antibody (Thermo Scientific MN1000) or control mouse IgG (Santa Cruz Biotech sc-2025) via the manufacturer's protocol. 250 μg of brain lysates prepared as described below was incubated with the resin-coupled tau antibody overnight at 4-C. Samples were eluted with 50 μl of low pH Elution buffer and immediately centrifuged into collection tubes containing 5 μl of 1M Tris, pH 9.5. Immunoprecipitated tau was subjected to Western blotting as described below.
Western Blot: To examine changes in O-GlcNAcylation and phosphorylation, animals were euthanized 4 h after injection in the acute or subchronic studies and 24 h after the last injection in the chronic study. Hemi-forebrains were rapidly dissected and frozen on dry ice. Tissue samples were homogenized in Phosphosafe Buffer (EMD Chemicals), followed by a low-speed centrifugation (15,000 g) to remove cellular debris. The resulting supernatant (low-speed supernatant, Lss) was assayed to determine protein concentrations by Lowry method. O-GlcNAcylation and phosphorylation were determined in 20 μg protein samples subjected to 4-15% SDS-PAGE (Tris-HCl gels, Bio-Rad), followed by a transfer to nitrocellulose membranes (Invitrogen, IBlot system). Membranes were blocked in Licor blocking buffer at room temperature for 1 h and incubated in primary antibody overnight at 4° C. Total protein O-GlcNAcylation was detected using the RL2 antibody (1:500, ThermoScientific), tau O-GlcNAcylation was detected using the Otau(S400) antibody (1:500) and tau phosphorylation was detected using AT8 (1:500, ThermoScientific), pS396, pS262, pS356 (1:500, Abcam) and pS400 (1:5000, GenScript). GAPDH (1:1000, Abcam) or total tau (1:50,000 ThermoScientific) antibodies served as internal loading controls. Membranes were incubated with species-specific fluorophore-conjugated secondary (1:10,000; Licor) antibodies for 1 h at room temperature and detected using the Licor Odyssey. […]
(In general: Immunoblotting shows a protein as a band on a membrane.)

As for `CCN=C1N[C@@H]2[C@@H](O)[C@H](O)[C@@H](CO)O[C@@H]2S1` [ThiametG], in the test on Tg(tauP301L)4510 mice [1] (CA1 region of the hippocampus), the “pS202/205 (AT8) positive dystrophic neurons” value is on record as “significantly reduced” and the “tangle pathology (Bielschowsky staining)” value is “significant reduction”. Besides, in the test with Tg(tauP301L)4510 mice [1] (CA3 region of the hippocampus), the “pS202/205 (AT8) positive dystrophic neurons” value was “significantly reduced” and the “tangle burden (Bielschowsky staining)” value is reported as “no difference”. Also, the “tau O-GlcNAcylation elevated (Otau(S400))” value with Tg(tauP301L)4510 mice [2] (4 months of dosing) is reported as 9 fold. Further, in the test with Tg(tauP301L)4510 mice [2] (4 months, 500 mg/kg/day), the “levels of total protein O-GlcNAcylation” value is listed as 185%. Also, in the test on Tg(tauP301L)4510 mice [2] (14 days), the “tau phosphorylation at S202/205” value was “returned towards basal levels”, the “tau phosphorylation at S262” value was “returned towards basal levels”, the “tau phosphorylation at S356” value is on record as “still significantly reduced” and the “tau phosphorylation at S396” value is “returned towards basal levels”. In addition, the “total protein O-GlcNAcylation in the CNS” value in the test with Tg(tauP301L)4510 mice [2] (14 days of administration, 500 mg/kg/day, vs vehicle) was “significant increase”. The “tau phosphorylation at S400” value in the test on Tg(tauP301L)4510 mice [2] (acute treatment) is on record as “did not alter”. The “increase in tau O-GlcNAcylation (Otau(S400))” value in the test with Tg(tauP301L)4510 mice [2] (repeated injection (14 days), vs vehicle) is listed as 9 fold. Also, in the test with Tg(tauP301L)4510 mice [2] (single injection), the “tau O-GlcNAcylation (Otau(S400))” value was “small increase”, the “tau phosphorylation at S202/205” value was “reduced”, the “tau phosphorylation at S262” value is reported as “reduced” and the “tau phosphorylation at S356” value is reported as “reduced”. Also, the “tau phosphorylation at S396” value in the test on Tg(tauP301L)4510 mice [2] (single injection) is “reduced”. In addition, the “total protein O-GlcNAcylation in the CNS” value with Tg(tauP301L)4510 mice [2] (single injection, 500 mg/kg/day, 4 h, vs vehicle) is recorded as “significant increase”.
